Reference: article PMC12147761 (Journal of medicinal chemistry, 2025)
Where two headings read alike, the source gives them in different places.

Assays:
CDK16/CycY = molecular target: T1, CDK16/CycY (Homo sapiens, UniProt Q00536); experiment: CDK family panel, ADP-Glo; format: biochemical
T1 construct: ICE Bioscience Inc. (assay service)
Description: (§1) All the kinase activity were performed using an ADP-Glo kinase assay by ICE Bioscience Inc. (Beijing, China).

CDK19/CycC = molecular target: T2, CDK19/CycC (Homo sapiens, UniProt Q9BWU1); experiment: CDK family panel, ADP-Glo; format: biochemical
T2 construct: ICE Bioscience Inc. (assay service)
Description: as §1

[1] = Pharmacokinetics study in mice; format: in vivo, ICR mice; settings: for AUC(0-t) / Cmax / Tmax / clearance / half-life / bioavailability: both sexes, ICR, mouse, plasma
VCaP cells = experiment: Cell apoptosis assay by flow cytometry; format: cell-based, human; settings: YJZ5118 at 100 nM
Description: Cells were seeded in six-well plates and incubated for 24 h at 37 °C and 5% CO2. Cells were then treated with the indicated concentrations of the tested compounds for 48 h. The treated cells then were collected, centrifuged and washed twice by cold PBS. […] Cell samples were analyzed with flow cytometry (SH800S cell sorter, Sony Biotechnology).

VCaP CRPC xenograft = experiment: In vivo efficacy, VCaP CRPC mouse model; parameters: species or system mice; settings: YJZ5118 i.p., q.d., uprosertib p.o., 5x/week, 27 days, compared to vehicle
Description: All the animal experiments were performed under an approved animal protocol (Protocol ID: PRO00010006, PI, Arul Chinnaiyan) by the Institutional Animal Care & Use Committee of the University of Michigan. Six- to eight-week-old NSG (Jackson Laboratory) or CB17SCID female (Charles River Laboratory) mice were in a regular SPF housing room prior to cell injection. Briefly, 5 ×10^6 cells of VCaP CRPC were injected […] of NSG or CB17SCID mice, respectively. After tumor size reached approximately 200–400 mm^3, animals were subjected to drug treatment. […] Vehicle consisted of 20% PEG400, 6% Cremophor EL, and 74% PBS solution. Tumors were collected at the end of the experiment for Western blot analysis.

[2] = intravenous, i.v. 2.5 mg/kg (Table S5, intraperitoneal study)

T2 sequence (Q9BWU1 whole entry, species assumed): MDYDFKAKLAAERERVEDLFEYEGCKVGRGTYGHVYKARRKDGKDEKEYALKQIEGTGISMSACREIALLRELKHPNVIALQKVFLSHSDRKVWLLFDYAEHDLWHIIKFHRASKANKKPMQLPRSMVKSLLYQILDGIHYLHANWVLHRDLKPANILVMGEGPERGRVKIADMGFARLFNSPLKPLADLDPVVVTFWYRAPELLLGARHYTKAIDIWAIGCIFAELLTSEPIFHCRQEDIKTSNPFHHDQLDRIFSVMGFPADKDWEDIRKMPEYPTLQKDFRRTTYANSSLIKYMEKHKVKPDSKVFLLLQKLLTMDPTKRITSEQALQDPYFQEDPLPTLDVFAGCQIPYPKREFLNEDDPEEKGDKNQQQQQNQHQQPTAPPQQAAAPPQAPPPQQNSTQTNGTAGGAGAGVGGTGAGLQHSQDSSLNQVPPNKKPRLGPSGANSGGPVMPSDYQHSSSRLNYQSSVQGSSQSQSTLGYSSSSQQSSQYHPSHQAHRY
T2 sequence (P24863 whole entry partner, species assumed): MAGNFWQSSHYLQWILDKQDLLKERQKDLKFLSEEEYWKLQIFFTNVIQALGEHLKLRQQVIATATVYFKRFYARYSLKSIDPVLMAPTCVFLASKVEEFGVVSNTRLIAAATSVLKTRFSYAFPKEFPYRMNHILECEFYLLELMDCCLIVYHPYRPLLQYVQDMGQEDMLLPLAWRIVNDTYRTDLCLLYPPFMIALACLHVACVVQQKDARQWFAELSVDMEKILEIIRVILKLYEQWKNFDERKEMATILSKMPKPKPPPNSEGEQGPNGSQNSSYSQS
T1 sequence (Q00536 whole entry, species assumed): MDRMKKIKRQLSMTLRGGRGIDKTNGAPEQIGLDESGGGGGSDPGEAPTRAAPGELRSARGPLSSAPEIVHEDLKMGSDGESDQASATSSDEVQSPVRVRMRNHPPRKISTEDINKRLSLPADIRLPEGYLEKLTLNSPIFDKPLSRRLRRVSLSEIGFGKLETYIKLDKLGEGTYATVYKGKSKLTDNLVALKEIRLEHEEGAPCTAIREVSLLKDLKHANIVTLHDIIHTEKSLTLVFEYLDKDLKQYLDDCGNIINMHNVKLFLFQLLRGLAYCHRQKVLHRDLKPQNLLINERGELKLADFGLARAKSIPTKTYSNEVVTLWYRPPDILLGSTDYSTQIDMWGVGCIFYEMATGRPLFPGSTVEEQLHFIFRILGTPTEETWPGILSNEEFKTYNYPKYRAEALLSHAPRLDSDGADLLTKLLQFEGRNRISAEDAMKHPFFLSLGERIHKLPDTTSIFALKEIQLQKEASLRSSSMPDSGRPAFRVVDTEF
T1 sequence (Q8ND76 whole entry partner, species assumed): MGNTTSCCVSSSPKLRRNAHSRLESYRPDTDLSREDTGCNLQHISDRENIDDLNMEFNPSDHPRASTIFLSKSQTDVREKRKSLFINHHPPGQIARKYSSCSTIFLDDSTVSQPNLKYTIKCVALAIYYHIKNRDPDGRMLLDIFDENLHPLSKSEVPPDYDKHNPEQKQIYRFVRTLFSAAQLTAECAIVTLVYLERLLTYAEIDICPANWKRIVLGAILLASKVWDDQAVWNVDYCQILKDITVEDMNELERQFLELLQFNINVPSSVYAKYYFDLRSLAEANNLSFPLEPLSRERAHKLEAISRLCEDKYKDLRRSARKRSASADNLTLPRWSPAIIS

IC50 (CDK16/CycY): > 10000 nM
IC50 (CDK19/CycC): > 10000 nM
AUC(0-t) [1, 2]: 1660 ng·h/mL
Cmax [1, 2]: 3310 ng/mL
Tmax [1, 2]: 0.08 h
clearance [1, 2]: 25.6 mL/min/kg
half-life [1, 2]: 1.21 h
bioavailability ([1]; ip, 2.5 mg/kg, i.p. 2.5 mg/kg, read-out: F): 113%
AUC(0-t) ([1]; ip, i.p. 2.5 mg/kg): 1860 ng·h/mL
Cmax ([1]; ip, i.p. 2.5 mg/kg): 1580 ng/mL
Tmax ([1]; ip, i.p. 2.5 mg/kg): 0.33 h
half-life ([1]; ip, i.p. 2.5 mg/kg): 1.46 h
clearance ([1]; iv, i.v. 2 mg/kg): 28.3 mL/min/kg
AUC(0-t) ([1]; iv, i.v. 2.5 mg/kg (Figure 3A)): 1580 ng·h/mL
Cmax ([1]; iv, i.v. 2.5 mg/kg (Figure 3A)): 2810 ng/mL
Tmax ([1]; iv, i.v. 2.5 mg/kg (Figure 3A)): 0.08 h
clearance ([1]; iv, i.v. 2.5 mg/kg (Figure 3A)): 28.3 mL/min/kg
half-life ([1]; iv, i.v. 2.5 mg/kg (Figure 3A)): 1.29 h
bioavailability ([1]; po, 10 mg/kg, p.o. 10 mg/kg, read-out: F (oral bioavailability)): 35.5%
AUC(0-t) ([1]; po, p.o. 10 mg/kg): 2240 ng·h/mL
Cmax ([1]; po, p.o. 10 mg/kg): 639 ng/mL
Tmax ([1]; po, p.o. 10 mg/kg): 1.5 h
half-life ([1]; po, p.o. 10 mg/kg): 2.32 h
clearance rate, times lower than that of 14h ([1]; i.v.): 4 time
F (oral bioavailability) ([1]; p.o. 10 mg/kg, 10 mg/kg): 35.5%
SMILES: C=CC(=O)Nc1cc(N(C(=O)NCc2ccccc2)[C@H]2CC[C@H](Nc3ccc(C#N)cn3)CC2)ccc1N1CCC(N(C)C)CC1 [YJZ5118, N-(5-(3-benzyl-1-((1r,4r)-4-((5-cyanopyridin-2-yl)amino)cyclohexyl)ureido)-2-(4-(dimethylamino)piperidin-1-yl)phenyl)acrylamide]
apoptosis rate (VCaP cells): 28.5%
tumor growth (VCaP CRPC xenograft): significant reduction in tumor growth
